Measured values as given in US20220387435A1, “USE OF MULTI-TARGET PROTEIN KINASE INHIBITOR” (CSPC Zhongqi Pharmaceutical Technology (Shijiazhuang) Co., …, priority 2019, published 2022).
Several values for one entry are separate records, joined by “and”; a condition that tells them apart may be missing. Identical values can stand only once. Like-named read-outs stand apart in the source and are kept apart here.

System: Chinese adult subjects with FLT3-mutant R/R AML
Test: Phase II clinical study, safety

## CC(C)n1c(Nc2cccnc2)nc2cnc(Nc3ccc(N4CCN(C)CC4)cc3)nc21 [Compound A]
  Adverse events leading to death: 3 (23.1) n (%)
  Adverse events of > Grade 3: 11 (84.6) n (%)
  Important adverse reactions: 8 (61.5) n (%)
  Non-hematologic adverse events of > Grade 3: 11 (84.6) n (%)
150 mg BID group
  elevated blood lactate dehydrogenase: 1 subject
150 mg BID group (1 subject)
  elevated aspartate amino transferase: 7.1%
150 mg BID group (2 subjects)
  adverse reactions classified as cardiac organ diseases (SOC): 14.3%
  adverse reactions classified as hepatobiliary system disease (SOC): 14.3%
  elevated hemobilirubin: 14.3%
150 mg BID group (7 cases)
  incidence of hematological adverse reactions of grade ≥4: 50%
150 mg group (N = 14)
  Adverse events: 14 (100.0) n (%)
  Adverse events leading to death: 4 (28.6) n (%)
  Adverse events leading to dose reduction: 3 (21.4) n (%)
  Adverse events leading to withdrawal from the trial: 3 (21.4) n (%)
  Adverse events of > Grade 3: 13 (92.9) n (%)
  Adverse reactions: 12 n (%) and 12 (85.7) n (%)
  Adverse reactions leading to death: 1 (7.1) n (%)
  Adverse reactions leading to dose reduction: 3 (21.4) n (%)
  Adverse reactions leading to withdrawal from the trial: 0 (0) n (%)
  Adverse reactions of > Grade 3: 9 (64.3) n (%)
  Important adverse events: 11 (78.6) n (%)
  Important adverse reactions: 8 (57.1) n (%)
  Non-hematologic adverse events of > Grade 3: 10 (71.4) n (%)
  Non-hematological adverse reactions of > Grade 3: 4 (28.6) n (%)
  Serious adverse events: 11 (78.6) n (%)
  Serious adverse reactions: 5 (35.7) n (%)
  adverse events of > Grade 4: 8 (57.1) n (%)
  adverse reactions of > Grade 4: 7 (50.0) n (%)
200 mg BID group
  adverse reactions classified as cardiac organ diseases (SOC): 0 subjects
  electrocardiogram high voltage: 1 subject
200 mg BID group (1 subject)
  elevated hemobilirubin: 25%
200 mg BID group (2 cases)
  incidence of hematological adverse reactions of grade ≥4: 50%
200 mg group (N = 4)
  Adverse events: 4 (100.0) n (%)
  Adverse events leading to death: 1 (25.0) n (%)
  Adverse events leading to dose reduction: 2 (50.0) n (%)
  Adverse events leading to withdrawal from the trial: 1 (25.0) n (%)
  Adverse events of > Grade 3: 4 (100.0) n (%)
  Adverse reactions: 4 n (%) and 4 (100.0) n (%)
  Adverse reactions leading to death: 0 (0) n (%)
  Adverse reactions leading to dose reduction: 2 (50.0) n (%)
  Adverse reactions leading to withdrawal from the trial: 0 (0) n (%)
  Adverse reactions of > Grade 3: 3 (75.0) n (%)
  Important adverse events: 4 (100.0) n (%)
  Important adverse reactions: 3 (75.0) n (%)
  Non-hematologic adverse events of > Grade 3: 4 (100.0) n (%)
  Non-hematological adverse reactions of > Grade 3: 3 (75.0) n (%)
  Serious adverse events: 3 (75.0) n (%)
  Serious adverse reactions: 2 (50.0) n (%)
  adverse events of > Grade 4: 2 (50.0) n (%)
  adverse reactions of > Grade 4: 2 (50.0) n (%)
300 mg QD group
  electrocardiogram high voltage: 1 subject
300 mg QD group (1 subject)
  adverse reactions classified as cardiac organ diseases (SOC): 7.7%
300 mg QD group (2 subjects)
  adverse reactions classified as hepatobiliary system disease (SOC): 15.4%
  elevated gamma-glutamyltransferase: 15.4%
300 mg QD group (3 subjects)
  elevated blood alkaline phosphatase: 23.1%
  elevated hemobilirubin: 23.1%
300 mg QD group (9 cases)
  incidence of hematological adverse reactions of grade ≥4: 69.2%
300 mg group (N = 14)
  Adverse events: 13 (100.0) n (%)
  Adverse events leading to dose reduction: 2 (15.4) n (%)
  Adverse events leading to withdrawal from the trial: 0 (0) n (%)
  Adverse reactions: 12 n (%) and 12 (92.3) n (%)
  Adverse reactions leading to death: 1 (7.7) n (%)
  Adverse reactions leading to dose reduction: 1 (7.7) n (%)
  Adverse reactions leading to withdrawal from the trial: 0 (0) n (%)
  Adverse reactions of > Grade 3: 9 (69.2) n (%)
  Important adverse events: 11 (84.6) n (%)
  Non-hematological adverse reactions of > Grade 3: 7 (53.8) n (%)
  Serious adverse events: 10 (76.9) n (%)
  Serious adverse reactions: 6 (46.2) n (%)
  adverse events of > Grade 4: 9 (69.2) n (%)
  adverse reactions of > Grade 4: 9 (69.2) n (%)
31 subjects (1 case)
  serious hematological adverse reaction: anemia: 3.2%
  serious hematological adverse reaction: bone marrow failure: 3.2%
  serious hematological adverse reaction: hemolyticanemia: 3.2%
